Peptide text beside a SMILES is read from it.
Columns and labels:
HT-1080 cells = assay: In vitro cell attachment assays; type: cell-based, human
Method: HT-1080 cells from a human fibrosarcoma (Rasheed, S. et al., Cancer (Philadelphia) 33:1027 (1974) are maintained in Dulbecco's modified Eagle's medium (DMEM) supplemented with 10% fetal calf serum. After the cells are grown to 80% confluency, they are washed with 0.02M phosphate buffer, pH 7.4, without CA^+2 and Mg^+2 and detached with a solution of 0.025% trypsin plus 0.025% ethylenediaminetetraacetic acid (EDTA; GIBCO). The cells are then pelleted by low speed centrifugation and resuspended in Eagle's minimal essential medium (EMEM) containing 0.02% bovine serum albumin (BSA, Sigma Chemical Co., St. Louis, Mo.). Cell attachment assays are performed as described in Klebe, R.J. Nature (London) 250:248 (1974), on tissue culture plastic substrates by using 16-mm Falcon tissue culture wells (Fisher Scientific Co., Pittsburg, Pa.) incubated with various peptides or with laminin in lmL of EMEM containing 0.02% BSA for 1 or 2 hours at 37° C. Cells (10^5 in 0.1 mL) are added to the wells, and the solution is incubated for an additional 1 hour at 37° C. in 95% air and 5% CO2. Subsequently, the wells are rinsed 3 times with lmL of phosphate-buffered saline (PBS) to remove unattached cells. Attached cells are trypsinized and counted electronically (Coulter, ZBI). […]

B16F10 melanoma cells = assay: Lung tumor colonization assay; type: in vivo, mice
Method: B16F10 melanoma cells, obtained from I.J. Fidler, M.D., Anderson Hospital, Houston, TX, are propagated under standard culture conditions. The lung tumor colonization assay is carried out as described in Fidler, I.J., Nature (London) (New Biol.) 242:148 (1973). Peptides are dissolved at 5 mg/mL in PBS and are filter-sterilized. The suspension of B16F10 cells (5×10^5) in 0.1 mL of DMEM is mixed with 0.1 mL of the peptide (or .1 ml PBS in control), incubated for 5 minutes at room temperature, and then injected into the tail vein of syngeneic C57BL/6 female mice (Jackson Labs., Bar Harbor, Me.) at 6 weeks of age. Each treatment and control group consists of eight mice. Three weeks after the injections, the mice are killed and the number of pulmonary tumors on the surface of the lungs counted.

67 kd laminin receptor = assay: Laminin receptor binding / elution from laminin affinity columns

Q: How did the “affinity for cell adhesion” value (HT-1080 cells; HT-1080 cells, compared with the straight chain peptide, FIG. 1) turn out when `CC[C@H](C)[C@@H]1NC(=O)[C@H](Cc2ccc(O)cc2)NC(=O)[C@@H](CCCNC(=N)N)NC(=O)[C@H](CO)NC(=O)CNC1=O` [cyclic peptide of the invention] (HELM PEPTIDE1{G.S.[dR].Y.I}$PEPTIDE1,PEPTIDE1,1:R1-5:R2$$$V2.0) was run?
A: Its value is “higher affinity for cell adhesion than the straight chain peptide”.

Q: And the “blocking of cell adhesion and laminin-mediated adhesion” value (HT-1080 cells; summary statement)?
A: Its value is “blocks cell adhesion, laminin-mediated adhesion”.

Q: What about the “in vivo antimetastatic effectiveness (number of pulmonary tumors on the surface of the lungs)” value (B16F10 melanoma cells; B16F10 cells mixed with peptide, injected into tail vein of C57BL/6 female mice, counted three weeks after injection, compared with linear YIGSR-NH2, FIG. 2) of the same compound?
A: Its value is “at least twice as effective as linear YIGSR-NH2”.

Q: And the melanoma cell colonization (B16F10 melanoma cells; summary statement)?
A: The melanoma cell colonization was “blocks”.

Q: And the “elution of laminin receptor from laminin affinity columns” value (67 kd laminin receptor)?
A: Its value is “elutes the laminin receptor from laminin affinity columns”.

Q: What about the “binding of laminin receptor” value (67 kd laminin receptor; 67 kd laminin receptor) of the same compound?
A: The value was “binds the 67 kd laminin receptor”.

Reference: US5231082A, “Cyclic peptide with anti-metastasis activity” (Monsanto Company, priority 1989, dated 1993)
